Experimental data as given in the supplement of paper PMC10307832.

Columns and labels:
Assay in all cases: relative viability (nuclei count vs DMSO), 5 days (fraction); higher = more cells survive
Idelalisib + OSI-027 = compound: CC[C@H](Nc1ncnc2[nH]cnc12)c1nc2cccc(F)c2c(=O)n1-c1ccccc1 [Idelalisib] + COc1cccc2cc(-c3nc([C@H]4CC[C@H](C(=O)O)CC4)n4ncnc(N)c34)[nH]c12 [OSI-027] (partner 0.5 µM)
Procedure, shortened: (§1)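 Values are medians from duplicate plates. Each reflects relative viability, defined as the nuclei count of treated wells over that of vehicle wells. Lung cancer cell lines in 1536-well plates were pin-tool dosed one day after seeding with one drug alone or with a fixed anchor-drug dose plus five library-drug doses (not always all listed) in √10 steps, then fixed, stained and imaged at 4× after 5 days.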

Idelalisib + Olaparib = compound: CC[C@H](Nc1ncnc2[nH]cnc12)c1nc2cccc(F)c2c(=O)n1-c1ccccc1 [Idelalisib] + O=C(c1cc(Cc2n[nH]c(=O)c3ccccc23)ccc1F)N1CCN(C(=O)C2CC2)CC1 [Olaparib] (partner 8 µM)
Procedure, shortened: as §1

Pemetrexed + Alpelisib = compound: Nc1nc2[nH]cc(CCc3ccc(C(=O)N[C@@H](CCC(=O)O)C(=O)O)cc3)c2c(=O)[nH]1 [Pemetrexed] + Cc1nc(NC(=O)N2CCC[C@H]2C(N)=O)sc1-c1ccnc(C(C)(C)C(F)(F)F)c1 [Alpelisib] (partner 2 µM)
Procedure, shortened: as §1

Pemetrexed + Olaparib = compound: Nc1nc2[nH]cc(CCc3ccc(C(=O)N[C@@H](CCC(=O)O)C(=O)O)cc3)c2c(=O)[nH]1 [Pemetrexed] + O=C(c1cc(Cc2n[nH]c(=O)c3ccccc23)ccc1F)N1CCN(C(=O)C2CC2)CC1 [Olaparib] (partner 8 µM)
Procedure, shortened: as §1

Cell Line 201T has a relative viability (Idelalisib + OSI-027; first compound 0.04 µM) of 0.812, a relative viability (Idelalisib + OSI-027; first compound 0.1265 µM) of 0.736 and a relative viability (Idelalisib + OSI-027; first compound 0.4 µM) of 0.548. It also gave a relative viability (Idelalisib + OSI-027; first compound 1.265 µM) of 0.67, a relative viability (Idelalisib + OSI-027; first compound 4 µM) of 0.679 and a relative viability (Idelalisib + Olaparib; first compound 0.04 µM) of 0.825. For the same cell line, the relative viability (Idelalisib + Olaparib; first compound 0.1265 µM) was 0.836, the relative viability (Idelalisib + Olaparib; first compound 0.4 µM) was 0.837 and the relative viability (Idelalisib + Olaparib; first compound 1.265 µM) was 0.821. It also gave a relative viability (Idelalisib + Olaparib; first compound 4 µM) of 0.839, a relative viability (Pemetrexed + Alpelisib; first compound 0.002 µM) of 1.07 and a relative viability (Pemetrexed + Alpelisib; first compound 0.006325 µM) of 1.05. It also gave a relative viability (Pemetrexed + Alpelisib; first compound 0.02 µM) of 1.03, a relative viability (Pemetrexed + Alpelisib; first compound 0.06325 µM) of 1 and a relative viability (Pemetrexed + Alpelisib; first compound 0.2 µM) of 0.955. For the same cell line, the relative viability (Pemetrexed + Olaparib; first compound 0.002 µM) was 0.791, the relative viability (Pemetrexed + Olaparib; first compound 0.006325 µM) was 0.85 and the relative viability (Pemetrexed + Olaparib; first compound 0.02 µM) was 0.841. The relative viability (Pemetrexed + Olaparib; first compound 0.06325 µM) was 0.878 and the relative viability (Pemetrexed + Olaparib; first compound 0.2 µM) was 0.839.
A549 showed a relative viability (Idelalisib + Olaparib; first compound 0.04 µM) of 0.238, a relative viability (Idelalisib + Olaparib; first compound 0.1265 µM) of 0.28 and a relative viability (Idelalisib + Olaparib; first compound 0.4 µM) of 0.236. The relative viability (Idelalisib + Olaparib; first compound 1.265 µM) was 0.266, the relative viability (Idelalisib + Olaparib; first compound 4 µM) was 0.361 and the relative viability (Pemetrexed + Alpelisib; first compound 0.002 µM) was 0.695. The relative viability (Pemetrexed + Alpelisib; first compound 0.006325 µM) was 0.682, the relative viability (Pemetrexed + Alpelisib; first compound 0.02 µM) was 0.946 and the relative viability (Pemetrexed + Alpelisib; first compound 0.06325 µM) was 0.785. For the same cell line, the relative viability (Pemetrexed + Alpelisib; first compound 0.2 µM) was 0.774, the relative viability (Pemetrexed + Olaparib; first compound 0.002 µM) was 0.29 and the relative viability (Pemetrexed + Olaparib; first compound 0.006325 µM) was 0.292. For the same cell line, the relative viability (Pemetrexed + Olaparib; first compound 0.02 µM) was 0.379, the relative viability (Pemetrexed + Olaparib; first compound 0.06325 µM) was 0.338 and the relative viability (Pemetrexed + Olaparib; first compound 0.2 µM) was 0.343.
A-427 gave a relative viability (Idelalisib + OSI-027; first compound 0.04 µM) of 0.443, a relative viability (Idelalisib + OSI-027; first compound 0.1265 µM) of 0.488 and a relative viability (Idelalisib + OSI-027; first compound 0.4 µM) of 0.332. For the same cell line, the relative viability (Idelalisib + OSI-027; first compound 1.265 µM) was 0.503, the relative viability (Idelalisib + OSI-027; first compound 4 µM) was 0.469 and the relative viability (Idelalisib + Olaparib; first compound 0.04 µM) was 0.853. For the same cell line, the relative viability (Idelalisib + Olaparib; first compound 0.1265 µM) was 0.788, the relative viability (Idelalisib + Olaparib; first compound 0.4 µM) was 0.712 and the relative viability (Idelalisib + Olaparib; first compound 1.265 µM) was 0.785. It also gave a relative viability (Idelalisib + Olaparib; first compound 4 µM) of 0.711, a relative viability (Pemetrexed + Alpelisib; first compound 0.002 µM) of 1.09 and a relative viability (Pemetrexed + Alpelisib; first compound 0.006325 µM) of 1.1. The relative viability (Pemetrexed + Alpelisib; first compound 0.02 µM) was 1.05, the relative viability (Pemetrexed + Alpelisib; first compound 0.06325 µM) was 1.1 and the relative viability (Pemetrexed + Alpelisib; first compound 0.2 µM) was 1.04. For the same cell line, the relative viability (Pemetrexed + Olaparib; first compound 0.002 µM) was 0.758, the relative viability (Pemetrexed + Olaparib; first compound 0.006325 µM) was 0.765 and the relative viability (Pemetrexed + Olaparib; first compound 0.02 µM) was 0.775. For the same cell line, the relative viability (Pemetrexed + Olaparib; first compound 0.06325 µM) was 0.759 and the relative viability (Pemetrexed + Olaparib; first compound 0.2 µM) was 0.711.
For ABC-1, the relative viability (Idelalisib + OSI-027; first compound 0.04 µM) was 0.491, the relative viability (Idelalisib + OSI-027; first compound 0.1265 µM) was 0.495 and the relative viability (Idelalisib + OSI-027; first compound 0.4 µM) was 0.43. It also gave a relative viability (Idelalisib + OSI-027; first compound 1.265 µM) of 0.577, a relative viability (Idelalisib + OSI-027; first compound 4 µM) of 0.409 and a relative viability (Idelalisib + Olaparib; first compound 0.04 µM) of 0.947. The relative viability (Idelalisib + Olaparib; first compound 0.1265 µM) was 0.913, the relative viability (Idelalisib + Olaparib; first compound 0.4 µM) was 0.78 and the relative viability (Idelalisib + Olaparib; first compound 1.265 µM) was 0.97. The relative viability (Idelalisib + Olaparib; first compound 4 µM) was 0.68, the relative viability (Pemetrexed + Alpelisib; first compound 0.002 µM) was 1.13 and the relative viability (Pemetrexed + Alpelisib; first compound 0.006325 µM) was 0.937. The relative viability (Pemetrexed + Alpelisib; first compound 0.02 µM) was 1.28, the relative viability (Pemetrexed + Alpelisib; first compound 0.06325 µM) was 1.03 and the relative viability (Pemetrexed + Alpelisib; first compound 0.2 µM) was 0.87. For the same cell line, the relative viability (Pemetrexed + Olaparib; first compound 0.002 µM) was 0.839, the relative viability (Pemetrexed + Olaparib; first compound 0.006325 µM) was 0.867 and the relative viability (Pemetrexed + Olaparib; first compound 0.02 µM) was 0.985. The relative viability (Pemetrexed + Olaparib; first compound 0.06325 µM) was 0.875 and the relative viability (Pemetrexed + Olaparib; first compound 0.2 µM) was 0.865.
Work on BEN yielded a relative viability (Idelalisib + OSI-027; first compound 0.04 µM) of 0.263, a relative viability (Idelalisib + OSI-027; first compound 0.1265 µM) of 0.286 and a relative viability (Idelalisib + OSI-027; first compound 0.4 µM) of 0.257. The relative viability (Idelalisib + OSI-027; first compound 1.265 µM) was 0.294, the relative viability (Idelalisib + OSI-027; first compound 4 µM) was 0.291 and the relative viability (Idelalisib + Olaparib; first compound 0.04 µM) was 1.02. For the same cell line, the relative viability (Idelalisib + Olaparib; first compound 0.1265 µM) was 0.955, the relative viability (Idelalisib + Olaparib; first compound 0.4 µM) was 1.02 and the relative viability (Idelalisib + Olaparib; first compound 1.265 µM) was 1.12. It also gave a relative viability (Idelalisib + Olaparib; first compound 4 µM) of 0.847, a relative viability (Pemetrexed + Alpelisib; first compound 0.002 µM) of 1.09 and a relative viability (Pemetrexed + Alpelisib; first compound 0.006325 µM) of 1.02. It also gave a relative viability (Pemetrexed + Alpelisib; first compound 0.02 µM) of 1.03, a relative viability (Pemetrexed + Alpelisib; first compound 0.06325 µM) of 0.989 and a relative viability (Pemetrexed + Alpelisib; first compound 0.2 µM) of 0.774. It also gave a relative viability (Pemetrexed + Olaparib; first compound 0.002 µM) of 1.07, a relative viability (Pemetrexed + Olaparib; first compound 0.006325 µM) of 1.01 and a relative viability (Pemetrexed + Olaparib; first compound 0.02 µM) of 1.05. The relative viability (Pemetrexed + Olaparib; first compound 0.06325 µM) was 0.97 and the relative viability (Pemetrexed + Olaparib; first compound 0.2 µM) was 0.891.
Cell Line CAL-12T has a relative viability (Idelalisib + OSI-027; first compound 0.04 µM) of 0.643, a relative viability (Idelalisib + OSI-027; first compound 0.1265 µM) of 0.753 and a relative viability (Idelalisib + OSI-027; first compound 0.4 µM) of 0.537. For the same cell line, the relative viability (Idelalisib + OSI-027; first compound 1.265 µM) was 0.569, the relative viability (Idelalisib + OSI-027; first compound 4 µM) was 0.537 and the relative viability (Idelalisib + Olaparib; first compound 0.04 µM) was 0.767. The relative viability (Idelalisib + Olaparib; first compound 0.1265 µM) was 0.823, the relative viability (Idelalisib + Olaparib; first compound 0.4 µM) was 0.796 and the relative viability (Idelalisib + Olaparib; first compound 1.265 µM) was 0.852. The relative viability (Idelalisib + Olaparib; first compound 4 µM) was 0.75, the relative viability (Pemetrexed + Alpelisib; first compound 0.002 µM) was 1.03 and the relative viability (Pemetrexed + Alpelisib; first compound 0.006325 µM) was 0.976. For the same cell line, the relative viability (Pemetrexed + Alpelisib; first compound 0.02 µM) was 1.11, the relative viability (Pemetrexed + Alpelisib; first compound 0.06325 µM) was 1.15 and the relative viability (Pemetrexed + Alpelisib; first compound 0.2 µM) was 1.05. The relative viability (Pemetrexed + Olaparib; first compound 0.002 µM) was 0.706, the relative viability (Pemetrexed + Olaparib; first compound 0.006325 µM) was 0.616 and the relative viability (Pemetrexed + Olaparib; first compound 0.02 µM) was 0.804. The relative viability (Pemetrexed + Olaparib; first compound 0.06325 µM) was 0.694 and the relative viability (Pemetrexed + Olaparib; first compound 0.2 µM) was 0.692.
With COR-L23 the relative viability (Idelalisib + OSI-027; first compound 0.04 µM) was 0.78, the relative viability (Idelalisib + OSI-027; first compound 0.1265 µM) was 0.815 and the relative viability (Idelalisib + OSI-027; first compound 0.4 µM) was 0.722. It also gave a relative viability (Idelalisib + OSI-027; first compound 1.265 µM) of 0.809, a relative viability (Idelalisib + OSI-027; first compound 4 µM) of 0.74 and a relative viability (Idelalisib + Olaparib; first compound 0.04 µM) of 0.368. For the same cell line, the relative viability (Idelalisib + Olaparib; first compound 0.1265 µM) was 0.326, the relative viability (Idelalisib + Olaparib; first compound 0.4 µM) was 0.348 and the relative viability (Idelalisib + Olaparib; first compound 1.265 µM) was 0.327. For the same cell line, the relative viability (Idelalisib + Olaparib; first compound 4 µM) was 0.316, the relative viability (Pemetrexed + Alpelisib; first compound 0.002 µM) was 0.803 and the relative viability (Pemetrexed + Alpelisib; first compound 0.006325 µM) was 0.719. The relative viability (Pemetrexed + Alpelisib; first compound 0.02 µM) was 0.72, the relative viability (Pemetrexed + Alpelisib; first compound 0.06325 µM) was 0.259 and the relative viability (Pemetrexed + Alpelisib; first compound 0.2 µM) was 0.176. The relative viability (Pemetrexed + Olaparib; first compound 0.002 µM) was 0.28, the relative viability (Pemetrexed + Olaparib; first compound 0.006325 µM) was 0.406 and the relative viability (Pemetrexed + Olaparib; first compound 0.02 µM) was 0.36. The relative viability (Pemetrexed + Olaparib; first compound 0.06325 µM) was 0.253 and the relative viability (Pemetrexed + Olaparib; first compound 0.2 µM) was 0.152.
COR-L 105 was tested, and the relative viability (Idelalisib + OSI-027; first compound 0.04 µM) was 0.739, the relative viability (Idelalisib + OSI-027; first compound 0.1265 µM) was 0.629 and the relative viability (Idelalisib + OSI-027; first compound 0.4 µM) was 0.505. The relative viability (Idelalisib + OSI-027; first compound 1.265 µM) was 0.725, the relative viability (Idelalisib + OSI-027; first compound 4 µM) was 0.579 and the relative viability (Idelalisib + Olaparib; first compound 0.04 µM) was 0.628. The relative viability (Idelalisib + Olaparib; first compound 0.1265 µM) was 0.638, the relative viability (Idelalisib + Olaparib; first compound 0.4 µM) was 0.656 and the relative viability (Idelalisib + Olaparib; first compound 1.265 µM) was 0.715. For the same cell line, the relative viability (Idelalisib + Olaparib; first compound 4 µM) was 0.666, the relative viability (Pemetrexed + Alpelisib; first compound 0.002 µM) was 0.93 and the relative viability (Pemetrexed + Alpelisib; first compound 0.006325 µM) was 0.708. For the same cell line, the relative viability (Pemetrexed + Alpelisib; first compound 0.02 µM) was 1.08, the relative viability (Pemetrexed + Alpelisib; first compound 0.06325 µM) was 0.891 and the relative viability (Pemetrexed + Alpelisib; first compound 0.2 µM) was 0.909. It also gave a relative viability (Pemetrexed + Olaparib; first compound 0.002 µM) of 0.706, a relative viability (Pemetrexed + Olaparib; first compound 0.006325 µM) of 0.74 and a relative viability (Pemetrexed + Olaparib; first compound 0.02 µM) of 0.746. For the same cell line, the relative viability (Pemetrexed + Olaparib; first compound 0.06325 µM) was 0.738 and the relative viability (Pemetrexed + Olaparib; first compound 0.2 µM) was 0.662.
